Test results published in patent publication US3939043A, “Antibiotics designated XK-88 series and process for production thereof” (Abbott Laboratories, priority 1973, dated 1976).
Values after ≈ are worked out from the molar mass of the structure shown. Read-outs that look alike come from different tables or passages of the source.

Experiments:
[1] = system: Gram-positive and Gram-negative bacteria; assay: Antibacterial activity (summary of Table 4); format: cell-based; conditions: versus the said known antibiotics; from Table 4
Text: (§1) The in vitro antibacterial spectra of the XK-88 antibiotics by agar dilution method (pH 8.0) is illustrated in the following Table 4: […]

[2] = system: Pseudomonas aeruginosa BMH No. 1; assay: In vitro antibacterial spectrum by agar dilution method (pH 8.0); format: cell-based
Escherichia coli KY 8327 = assay: as above; format: cell-based; conditions: KY8327, Escherichia coli KY 8327 (resistant to Kanamycin, Gentamicin, Nebramycin and Tobramycin), read-out: Minimum Inhibitory Concentration (M.I.C.)
[3] = system: Salmonella typhosa ATCC 9992; assay: as above; format: cell-based; conditions: Salmonella enterica, pH 8, read-out: Minimum Inhibitory Concentration (M.I.C.)
Escherichia coli = assay: Antibacterial activity against resistant bacteria (summary of Table 4); format: cell-based; conditions: Escherichia coli normally resistant to various known antibiotics
Text: as §1

Staphylococcus aureus = assay: as above; format: cell-based; conditions: Staphylococcus aureus normally resistant to various known antibiotics
Text: as §1

[4] = system: Shigella sonnei ATCC 9290; assay: In vitro antibacterial spectrum by agar dilution method (pH 8.0); format: cell-based; conditions: ATCC9290, read-out: Minimum Inhibitory Concentration (M.I.C.)
Text: (§2) The in vitro antibacterial spectra of the XK-88 antibiotics by agar dilution method (pH 8.0) is illustrated in the following Table 4:
(§3) (Minimum Inhibitory Concentration (μg/ml)
(§4) by agar dilution method (pH 8.0)

Escherichia coli KY 8331 = assay: as above; format: cell-based; conditions: KY8331, Escherichia coli KY 8331 (resistant to Kanamycin, Ribostamycin, Neomycin, Paromomycin, Lividomycin and Nebramycin), read-out: Minimum Inhibitory Concentration (M.I.C.)
Text: as §2, §3, §4

Escherichia coli KY 8314 = assay: as above; format: cell-based; conditions: KY8314, Escherichia coli KY 8314 (resistant to Streptomycin), read-out: Minimum Inhibitory Concentration (M.I.C.)
Text: as §2, §3, §4

Escherichia coli KY 8310 = assay: as above; format: cell-based; conditions: KY8310, Escherichia coli KY 8310 (resistant to Chloramphenicol, Streptomycin, Kanamycin, Gentamicin, Paromomycin, Nebramycin, Tobramycin, Spectinomycin and Tetracycline), read-out: Minimum Inhibitory Concentration (M.I.C.)
Text: as §2, §3, §4

[5] = system: Staphylococcus aureus KY 8956; assay: as above; format: cell-based; conditions: KY8956, Staphylococcus aureus KY 8956 (resistant to Streptomycin, Paromomycin, Tetracycline, Kanamycin, Nebramycin, Tobramycin and Erythromycin), read-out: Minimum Inhibitory Concentration (M.I.C.)
[6] = system: Streptococcus faecalis ATCC 10541; assay: as above; format: cell-based; conditions: Enterococcus faecalis
[7] = system: Bacillus cereus var. mycoides ATCC 9463; assay: microbe, parasite or virus in culture; format: cell-based; conditions: ATCC9463, pH 8, read-out: Minimum Inhibitory Concentration (M.I.C.)
[8] = system: Proteus vulgaris ATCC 6897; assay: In vitro antibacterial spectrum by agar dilution method (pH 8.0); format: cell-based
[9] = system: Staphylococcus aureus ATCC 6538P; assay: as above; format: cell-based; conditions: ATCC6538P, read-out: Minimum Inhibitory Concentration (M.I.C.)
[10] = system: Staphylococcus aureus KY 8953; assay: as above; format: cell-based
Escherichia coli ATCC 26 = assay: as above; format: cell-based
[11] = system: Staphylococcus aureus KY 8942; assay: as above; format: cell-based
[12] = system: Bacillus cereus ATCC 9634; assay: as above; format: cell-based; conditions: ATCC9634, read-out: Minimum Inhibitory Concentration (M.I.C.)
[13] = system: Klebsiella pneumoniae ATCC 10031; assay: as above; format: cell-based; conditions: ATCC10031, read-out: Minimum Inhibitory Concentration (M.I.C.)
[14] = system: Staphylococcus aureus KY 8950; assay: as above; format: cell-based; conditions: KY8950, Staphylococcus aureus KY 8950 (resistant to Streptomycin, Tetracycline, Penicillin and sulfonamide), read-out: Minimum Inhibitory Concentration (M.I.C.)
Escherichia coli KY 8334 = assay: as above; format: cell-based; conditions: KY8334, Escherichia coli KY 8334 (resistant to Kanamycin and Tobramycin), read-out: Minimum Inhibitory Concentration (M.I.C.)
Escherichia coli KY 8348 = assay: as above; format: cell-based; conditions: KY8348, Escherichia coli KY 8348 (resistant to Streptomycin and Gentamicin), read-out: Minimum Inhibitory Concentration (M.I.C.)
[15] = system: Bacillus subtilis No. 10703; assay: as above; format: cell-based
[16] = system: Staphylococcus aureus KY 8957; assay: as above; format: cell-based; conditions: KY8957, Staphylococcus aureus KY 8957 (resistant to Chloramphenicol, Streptomycin, Kanamycin, Paromomycin, Nebramycin, Tobramycin and Tetracycline), read-out: Minimum Inhibitory Concentration (M.I.C.)
Solubility = format: physicochemical; conditions: for solubility in organic solvents: acetone, ethyl acetate, ethyl ether, chloroform, etc.
[17] = ATCC10541, pH 8, read-out: Minimum Inhibitory Concentration (M.I.C.)
[18] = Staphylococcus aureus, KY8953, pH 8, read-out: Minimum Inhibitory Concentration (M.I.C.)
[19] = BMHNO.1, Pseudomonas aeruginosa BMH No. 1, agar dilution, pH 8.0, read-out: Minimum Inhibitory Concentration (M.I.C.)
[20] = ATCC6897, Proteus vulgaris ATCC 6897, agar dilution, pH 8.0, read-out: Minimum Inhibitory Concentration (M.I.C.)
[21] = KY8953, Staphylococcus aureus KY 8953 (resistant to Streptomycin, Kanamycin, Paromycin, Neomycin, Tetracycline, Erythromycin), agar dilution, pH 8.0, read-out: Minimum Inhibitory Concentration (M.I.C.)
[22] = ATCC26, Escherichia coli ATCC 26, agar dilution, pH 8.0, read-out: Minimum Inhibitory Concentration (M.I.C.)
[23] = KY8942, Staphylococcus aureus KY 8942 (resistant to Kanamycin, Paromomycin, Streptomycin, Gentamicin and Nebramycin), agar dilution, pH 8.0, read-out: Minimum Inhibitory Concentration (M.I.C.)
[24] = Bacillus subtilis No. 10703, agar dilution, pH 8.0, read-out: Minimum Inhibitory Concentration (M.I.C.)

Compound	cross resistance with known antibiotics [1]	MIC (Escherichia coli KY 8327)	MIC [3]	antibacterial activity (Escherichia coli)	antibacterial activity (Staphylococcus aureus)	MIC [4]	MIC (Escherichia coli KY 8331)	MIC (Escherichia coli KY 8314)	MIC (Escherichia coli KY 8310)	MIC [5]	MIC [7]	MIC [9]	MIC [12]	MIC [13]	MIC [14]	MIC (Escherichia coli KY 8334)	MIC (Escherichia coli KY 8348)	MIC [16]	solubility in organic solvents (Solubility)	solubility in methanol and ethanol (Solubility)	also measured
NC1CC(N)C(OC2OC(CO)C(O)C(O)C2N)C(O)C1OC1OCC(O)C(O)C1N (stereo not shown) [XK-88-1]	complete cross resistance does not always occur	13.1 µg/mL (≈ 28.8 µM)	26.1 µg/mL (≈ 57.4 µM)	strong antibacterial activity	strong antibacterial activity	52.1 µg/mL (≈ 115 µM)	> 416 µg/mL	52.1 µg/mL (≈ 115 µM)	> 416 µg/mL	208 µg/mL (≈ 459 µM)	3.3 µg/mL (≈ 7.26 µM)	6.6 µg/mL (≈ 14.5 µM)	6.6 µg/mL (≈ 14.5 µM)	13.1 µg/mL (≈ 28.8 µM)	13.1 µg/mL (≈ 28.8 µM)	1.65 µg/mL (≈ 3.63 µM)	13.5 µg/mL (≈ 29.7 µM)	104 µg/mL (≈ 229 µM)	–	–	MIC ([2]; Pseudomonas aeruginosa, BMHNO.1, pH 8, read-out: Minimum Inhibitory Concentration (M.I.C.)): > 416 µg/mL; MIC [6, 17]: > 416 µg/mL; MIC ([8]; Proteus vulgaris, ATCC6897, pH 8, read-out: Minimum Inhibitory Concentration (M.I.C.)): 416 µg/mL (≈ 916 µM); MIC [10, 18]: > 416 µg/mL; MIC (Escherichia coli ATCC 26; Escherichia coli, ATCC26, pH 8, read-out: Minimum Inhibitory Concentration (M.I.C.)): 26.1 µg/mL (≈ 57.4 µM); MIC ([11]; Staphylococcus aureus, KY8942, pH 8, read-out: Minimum Inhibitory Concentration (M.I.C.)): 52.1 µg/mL (≈ 115 µM); MIC ([15]; Bacillus subtilis, NO.10703, pH 8, read-out: Minimum Inhibitory Concentration (M.I.C.)): 52.1 µg/mL (≈ 115 µM)
NCC1CC(O)C(N)C(OC2C(N)CC(N)C(O)C2O)O1 (stereo not shown) [XK-88-2]	complete cross resistance does not always occur	0.18 µg/mL (≈ 0.588 µM)	0.7 µg/mL (≈ 2.28 µM)	strong antibacterial activity	strong antibacterial activity	1.4 µg/mL (≈ 4.57 µM)	41.7 µg/mL (≈ 136 µM)	1.4 µg/mL (≈ 4.57 µM)	> 83.3 µg/mL	0.09 µg/mL (≈ 0.294 µM)	0.7 µg/mL (≈ 2.28 µM)	0.18 µg/mL (≈ 0.588 µM)	2.7 µg/mL (≈ 8.81 µM)	0.18 µg/mL (≈ 0.588 µM)	0.35 µg/mL (≈ 1.14 µM)	5.3 µg/mL (≈ 17.3 µM)	0.18 µg/mL (≈ 0.588 µM)	0.09 µg/mL (≈ 0.294 µM)	–	–	MIC [2, 19]: 10.5 µg/mL (≈ 34.3 µM); MIC [6, 17]: > 83.3 µg/mL; MIC [8, 20]: 1.4 µg/mL (≈ 4.57 µM); MIC [10, 21]: 0.35 µg/mL (≈ 1.14 µM); MIC (Escherichia coli ATCC 26; [22]): 0.35 µg/mL (≈ 1.14 µM); MIC [11, 23]: 1.4 µg/mL (≈ 4.57 µM); MIC [15, 24]: 0.35 µg/mL (≈ 1.14 µM)
NCC1OC(OC2C(N)CC(N)C(OC3OCC(O)C(O)C3N)C2O)C(N)C(O)C1O (stereo not shown) [XK-88-3]	complete cross resistance does not always occur	0.05 µg/mL (≈ 0.11 µM)	0.18 µg/mL (≈ 0.397 µM)	strong antibacterial activity	strong antibacterial activity	0.35 µg/mL (≈ 0.772 µM)	41.7 µg/mL (≈ 92 µM)	0.35 µg/mL (≈ 0.772 µM)	83.3 µg/mL (≈ 184 µM)	5.3 µg/mL (≈ 11.7 µM)	2.7 µg/mL (≈ 5.95 µM)	0.18 µg/mL (≈ 0.397 µM)	2.7 µg/mL (≈ 5.95 µM)	0.05 µg/mL (≈ 0.11 µM)	0.35 µg/mL (≈ 0.772 µM)	5.3 µg/mL (≈ 11.7 µM)	0.09 µg/mL (≈ 0.198 µM)	5.3 µg/mL (≈ 11.7 µM)	–	–	MIC [2, 19]: > 416 µg/mL; MIC [6, 17]: > 83.3 µg/mL; MIC [8, 20]: 1.4 µg/mL (≈ 3.09 µM); MIC [10, 18]: > 83.3 µg/mL; MIC (Escherichia coli ATCC 26; [22]): 0.18 µg/mL (≈ 0.397 µM); MIC [11, 23]: 1.4 µg/mL (≈ 3.09 µM); MIC [15, 24]: 2.7 µg/mL (≈ 5.95 µM)
COC1COC(OC2C(N)CC(N)C(OC3OC(CN)CC(O)C3N)C2O)C(N)C1N (stereo not shown) [XK-88-5]	complete cross resistance does not always occur	0.04 µg/mL (≈ 0.0888 µM)	0.09 µg/mL (≈ 0.2 µM)	strong antibacterial activity	strong antibacterial activity	0.14 µg/mL (≈ 0.311 µM)	20.8 µg/mL (≈ 46.2 µM)	0.33 µg/mL (≈ 0.732 µM)	> 41.6 µg/mL	< 0.02 µg/mL	0.66 µg/mL (≈ 1.46 µM)	0.07 µg/mL (≈ 0.155 µM)	1.31 µg/mL (≈ 2.91 µM)	< 0.05 µg/mL	0.17 µg/mL (≈ 0.377 µM)	0.66 µg/mL (≈ 1.46 µM)	2.7 µg/mL (≈ 5.99 µM)	0.04 µg/mL (≈ 0.0888 µM)	–	–	MIC [2, 19]: 8.3 µg/mL (≈ 18.4 µM); MIC ([6]; ATCC10541, Streptococcus faecalis ATCC 10541, agar dilution, pH 8.0, read-out: Minimum Inhibitory Concentration (M.I.C.)): 10.5 µg/mL (≈ 23.3 µM); MIC [8, 20]: 0.53 µg/mL (≈ 1.18 µM); MIC [10, 21]: 0.17 µg/mL (≈ 0.377 µM); MIC (Escherichia coli ATCC 26; [22]): 0.08 µg/mL (≈ 0.178 µM); MIC [11, 23]: 0.66 µg/mL (≈ 1.46 µM); MIC [15, 24]: 0.04 µg/mL (≈ 0.0888 µM)
NC1CC(N)C(OC2OC(CO)C(O)C(O)C2N)C(O)C1OC1OCC(O)C(O)C1N (stereo not shown) [sulfate of XK-88-1]	–	–	–	–	–	–	–	–	–	–	–	–	–	–	–	–	–	–	insoluble	poorly soluble	solubility in water (Solubility): very soluble
NCC1CC(O)C(N)C(OC2C(N)CC(N)C(O)C2O)O1 (stereo not shown) [sulfate of XK-88-2]	–	–	–	–	–	–	–	–	–	–	–	–	–	–	–	–	–	–	insoluble	poorly soluble	solubility in water (Solubility): very soluble
NCC1OC(OC2C(N)CC(N)C(OC3OCC(O)C(O)C3N)C2O)C(N)C(O)C1O (stereo not shown) [sulfate of XK-88-3]	–	–	–	–	–	–	–	–	–	–	–	–	–	–	–	–	–	–	insoluble	poorly soluble	solubility in water (Solubility): very soluble
COC1COC(OC2C(N)CC(N)C(OC3OC(CN)CC(O)C3N)C2O)C(N)C1N (stereo not shown) [sulfate of XK-88-5]	–	–	–	–	–	–	–	–	–	–	–	–	–	–	–	–	–	–	insoluble	poorly soluble	solubility in water (Solubility): very soluble
